# In patent publication US11684614B2, “Formulations of hydroxypyridonate actinide/lanthanide decorporation agents” (priority 2017, dated 2023):
# Assay: Repeated-treatment efficacy for removing an intravenous dose of 238Pu (excretion, tissue retention, clinical observations), female and male arms
# Format: in vivo, Swiss-Webster mice
# Conditions: male mice; for 238Pu percent increase in excretion, Total Excretion / 238Pu percent increase in excretion, Total Feces / 238Pu percent increase in excretion, Total Urine: over untreated control group; for ^238Pu percent tissue reduction, GI Trace / ^238Pu percent tissue reduction, Kidney / ^238Pu percent tissue reduction, Liver / ^238Pu percent tissue reduction, Soft Tissue / ^238Pu percent tissue reduction, Total Body / ^238Pu percent tissue reduction, Total Bone / ^238Pu percent tissue reduction, GI Tract: vs untreated control group
# Protocol: The objective of this study was to characterize the efficacy of 3,4,3-L1(1,2-HOPO) at enhancing elimination from an internal plutonium burden in female and male Swiss-Webster mice administered a soluble citrate complex of ^238Pu and treated multiple times, starting at 24 hours after the exposure. Efficacy was evaluated by comparing the tissue contents, urinary and fecal excretions of ^238Pu in treated animals versus untreated animals.
# The medical countermeasure 3,4,3-L1(1,2-HOPO) was administered parenterally (ip) or orally (po) via consecutive injections or gavages (six daily or twelve twice daily) starting at 24 hours post contamination at the following four selected doses: 30 μmol/kg ip, 150 μmol/kg po, 300 μmol/kg po, and 600 μmol/kg po (equivalent to respective approximate human doses range of […], using the accepted conversion system of mouse doses into human equivalent doses—HED—based on body surface area). Oral doses also included the permeability enhancer selected during formulation development work.
# • Challenge isotope: ^238Pu • Challenge dose: 25 nCi (i.e., approximately 0.8 μCi/kg) • Route of contamination: Intravenous (iv) tail-vein • Route of treatment: Intraperitoneal Injection (ip) or Oral (po) • Frequency of treatment: Multiple (once- or twice-daily for 6 days) doses, starting 24 hr postcontamination • Treatment dose calculation: Dose calculations (mg/kg or μmol/kg) for the decorporation agent were based on the individual body weight measured after contamination. • Study Duration: 11 days, in-life
# c. […] Test article and control dose formulations were prepared within 1 day of dose administration, by weighing out the appropriate amount of test article, dispersing in vehicle. For ip solutions, the test article was used alone, while for oral suspensions, a mixture of test article and excipient (90:10, w:w) was used. The pH was adjusted to 7.0-7.4 for ip administration and 5.0-5.5 for oral administration with sterile NaOH. Dose formulations were prepared at room temperature and filter-sterilized. • Storage: 2-8° C.; refrigerated; protected from light. • Characterization: The concentration of each test article formulation was verified by high-performance liquid chromatography-mass spectrometry. • Test Article Handling: Test, reference, and control article formulations were handled with the use of eye protection, gloves, and a protective laboratory coat. • Correct Dose Assurance: The test article was weighed with calibrated balances. The administration of each dose formulation was properly documented, and the amount administered to each animal recorded.
# e. Experimental Procedures (In-Life Evaluations and Euthanasia) • Contamination: Single administration by intravenous (iv) tail-vein injection (0.2 mL injection volume) under isoflurane anesthesia. Three standard 0.2 mL injections were performed into polyethylene bottles and pre-loaded with aliquots of concentrated nitric acid on each injection day. Six female and six male mice were culled for necropsy 1 hr post-contamination and were used as standards. A11 standards were processed and counted together with the final samples to allow verification of the contamination dose. • Dose Administration: Single administration by intraperitoneal injection (ip) or oral gavage (po) under isoflurane anesthesia. • Mortality/Morbidity: Assessed at least once daily. • Clinical Observations: Recorded once daily (4 hr post-dose on day of treatment), or more often as clinical signs warranted. […]
# [1] = 30 μmol/kg, IP, 11-day necropsy
# [2] = 150 μmol/kg, 2 doses PO, 7-day necropsy
# [3] = 300 μmol/kg, 1 dose PO, 7-day necropsy
# [4] = 300 μmol/kg, 1 dose PO, 11-day necropsy
# [5] = 300 μmol/kg, 2 doses PO, 7-day necropsy
# [6] = 300 μmol/kg, PO, 11-day necropsy
# [7] = 600 μmol/kg, 1 dose PO, 7-day necropsy
# [8] = 600 μmol/kg, 1 dose PO, 11-day necropsy
# [9] = 600 μmol/kg, PO, 11-day necropsy
# [10] = 600 μmol/kg, dose PO, 7-day necropsy
smiles,measurement,setting,value
O=C(NCCCN(CCCCN(CCCNC(=O)c1cccc(=O)n1O)C(=O)c1cccc(=O)n1O)C(=O)c1cccc(=O)n1O)c1cccc(=O)n1O [Formulation 343],"^238Pu excretion, Total Excretion, Avg",[1],79.89 percent recovered dose
same,"^238Pu excretion, Total Feces, Avg",[1],48.24 percent recovered dose
same,"^238Pu excretion, Total Urine, Avg",[1],31.65 percent recovered dose
same,"^238Pu retention, GI Tract, Avg",[1],0.53 percent recovered dose
same,"^238Pu retention, Kidney, Avg",[1],0.12 percent recovered dose
same,"^238Pu retention, Liver, Avg",[1],2.42 percent recovered dose
same,"^238Pu retention, Soft Tissue, Avg",[1],1.14 percent recovered dose
same,"^238Pu retention, Total Body, Avg",[1],20.11 percent recovered dose
same,"^238Pu retention, Total Bone, Avg",[1],15.90 percent recovered dose
same,"238Pu percent increase in excretion, Total Excretion",[1],168.28%
same,"238Pu percent increase in excretion, Total Feces",[1],188.96%
same,"238Pu percent increase in excretion, Total Urine",[1],144.22%
same,"^238Pu percent tissue reduction, GI Trace",[1],72.95%
same,"^238Pu percent tissue reduction, Kidney",[1],65.35%
same,"^238Pu percent tissue reduction, Liver",[1],85.55%
same,"^238Pu percent tissue reduction, Soft Tissue",[1],67.92%
same,"^238Pu percent tissue reduction, Total Body",[1],61.72%
same,"^238Pu percent tissue reduction, Total Bone",[1],46.83%
same,"^238Pu excretion, Total Excretion, Avg",[2],53.58 percent recovered dose
same,"^238Pu excretion, Total Feces, Avg",[2],30.26 percent recovered dose
same,"^238Pu excretion, Total Urine, Avg",[2],23.32 percent recovered dose
same,"^238Pu retention, GI Tract, Avg",[2],1.67 percent recovered dose
same,"^238Pu retention, Kidney, Avg",[2],0.31 percent recovered dose
same,"^238Pu retention, Liver, Avg",[2],21.40 percent recovered dose
same,"^238Pu retention, Soft Tissue, Avg",[2],3.16 percent recovered dose
same,"^238Pu retention, Total Body, Avg",[2],46.42 percent recovered dose
same,"^238Pu retention, Total Bone, Avg",[2],19.87 percent recovered dose
same,"238Pu percent increase in excretion, Total Excretion",[2],149.61%
same,"238Pu percent increase in excretion, Total Feces",[2],174.63%
same,"238Pu percent increase in excretion, Total Urine",[2],126.15%
same,"^238Pu percent tissue reduction, GI Tract",[2],−17.71%
same,"^238Pu percent tissue reduction, Kidney",[2],−4.19%
same,"^238Pu percent tissue reduction, Liver",[2],18.09%
same,"^238Pu percent tissue reduction, Soft Tissue",[2],−5.31%
same,"^238Pu percent tissue reduction, Total Body",[2],27.68%
same,"^238Pu percent tissue reduction, Total Bone",[2],40.39%
same,"^238Pu excretion, Total Excretion, Avg",[3],64.11 percent recovered dose
same,"^238Pu excretion, Total Feces, Avg",[3],40.12 percent recovered dose
same,"^238Pu excretion, Total Urine, Avg",[3],24.00 percent recovered dose
same,"^238Pu retention, GI Tract, Avg",[3],1.23 percent recovered dose
same,"^238Pu retention, Kidney, Avg",[3],0.17 percent recovered dose
same,"^238Pu retention, Liver, Avg",[3],12.68 percent recovered dose
same,"^238Pu retention, Soft Tissue, Avg",[3],1.75 percent recovered dose
same,"^238Pu retention, Total Body, Avg",[3],35.89 percent recovered dose
same,"^238Pu retention, Total Bone, Avg",[3],20.06 percent recovered dose
same,"238Pu percent increase in excretion, Total Excretion",[3],162.02%
same,"238Pu percent increase in excretion, Total Feces",[3],225.83%
same,"238Pu percent increase in excretion, Total Urine",[3],110.04%
same,"^238Pu percent tissue reduction, GI Tract",[3],21.76%
same,"^238Pu percent tissue reduction, Kidney",[3],40.67%
same,"^238Pu percent tissue reduction, Liver",[3],43.47%
same,"^238Pu percent tissue reduction, Soft Tissue",[3],34.62%
same,"^238Pu percent tissue reduction, Total Body",[3],40.61%
same,"^238Pu percent tissue reduction, Total Bone",[3],40.06%
same,"^238Pu retention, GI Tract, Avg",[4],1.03 percent recovered dose
same,"^238Pu retention, Kidney, Avg",[4],0.15 percent recovered dose
same,"^238Pu retention, Liver, Avg",[4],9.46 percent recovered dose
same,"^238Pu retention, Soft Tissue, Avg",[4],2.20 percent recovered dose
same,"^238Pu retention, Total Body, Avg",[4],33.83 percent recovered dose
same,"^238Pu retention, Total Bone, Avg",[4],20.99 percent recovered dose
same,"^238Pu percent tissue reduction, GI Trace",[4],30.01%
same,"^238Pu percent tissue reduction, Kidney",[4],45.60%
same,"^238Pu percent tissue reduction, Liver",[4],48.32%
same,"^238Pu percent tissue reduction, Soft Tissue",[4],22.51%
same,"^238Pu percent tissue reduction, Total Body",[4],36.96%
same,"^238Pu percent tissue reduction, Total Bone",[4],30.34%
same,"^238Pu excretion, Total Excretion, Avg",[5],59.71 percent recovered dose
same,"^238Pu excretion, Total Feces, Avg",[5],34.14 percent recovered dose
same,"^238Pu excretion, Total Urine, Avg",[5],25.57 percent recovered dose
same,"^238Pu retention, GI Tract, Avg",[5],1.45 percent recovered dose
same,"^238Pu retention, Kidney, Avg",[5],0.18 percent recovered dose
same,"^238Pu retention, Liver, Avg",[5],15.12 percent recovered dose
same,"^238Pu retention, Soft Tissue, Avg",[5],2.41 percent recovered dose
same,"^238Pu retention, Total Body, Avg",[5],40.29 percent recovered dose
same,"^238Pu retention, Total Bone, Avg",[5],21.12 percent recovered dose
same,"238Pu percent increase in excretion, Total Excretion",[5],166.71%
same,"238Pu percent increase in excretion, Total Feces",[5],197.01%
same,"238Pu percent increase in excretion, Total Urine",[5],138.32%
same,"^238Pu percent tissue reduction, GI Tract",[5],−2.24%
same,"^238Pu percent tissue reduction, Kidney",[5],39.84%
same,"^238Pu percent tissue reduction, Liver",[5],42.11%
same,"^238Pu percent tissue reduction, Soft Tissue",[5],19.73%
same,"^238Pu percent tissue reduction, Total Body",[5],37.23%
same,"^238Pu percent tissue reduction, Total Bone",[5],36.64%
same,"^238Pu excretion, Total Excretion, Avg",[6],66.17 percent recovered dose
same,"^238Pu excretion, Total Feces, Avg",[6],40.33 percent recovered dose
same,"^238Pu excretion, Total Urine, Avg",[6],25.84 percent recovered dose
same,"238Pu percent increase in excretion, Total Excretion",[6],142.80%
same,"238Pu percent increase in excretion, Total Feces",[6],180.35%
same,"238Pu percent increase in excretion, Total Urine",[6],107.78%
same,"^238Pu excretion, Total Excretion, Avg",[7],65.66 percent recovered dose
same,"^238Pu excretion, Total Feces, Avg",[7],40.53 percent recovered dose
same,"^238Pu excretion, Total Urine, Avg",[7],25.13 percent recovered dose
same,"238Pu percent increase in excretion, Total Excretion",[7],165.93%
same,"238Pu percent increase in excretion, Total Feces",[7],228.14%
same,"238Pu percent increase in excretion, Total Urine",[7],115.25%
same,"^238Pu percent tissue reduction, GI Tract",[7],−3.93%
same,"^238Pu percent tissue reduction, Kidney",[7],11.13%
same,"^238Pu percent tissue reduction, Liver",[7],44.57%
same,"^238Pu percent tissue reduction, Soft Tissue",[7],17.40%
same,"^238Pu percent tissue reduction, Total Body",[7],43.17%
same,"^238Pu percent tissue reduction, Total Bone",[7],46.78%
same,"^238Pu retention, GI Tract, Avg",[8],0.75 percent recovered dose
same,"^238Pu retention, Kidney, Avg",[8],0.19 percent recovered dose
same,"^238Pu retention, Liver, Avg",[8],6.78 percent recovered dose
same,"^238Pu retention, Soft Tissue, Avg",[8],1.93 percent recovered dose
same,"^238Pu retention, Total Body, Avg",[8],27.67 percent recovered dose
same,"^238Pu retention, Total Bone, Avg",[8],18.02 percent recovered dose
same,"^238Pu percent tissue reduction, GI Trace",[8],49.06%
same,"^238Pu percent tissue reduction, Kidney",[8],32.19%
same,"^238Pu percent tissue reduction, Liver",[8],62.99%
same,"^238Pu percent tissue reduction, Soft Tissue",[8],32.01%
same,"^238Pu percent tissue reduction, Total Body",[8],48.44%
same,"^238Pu percent tissue reduction, Total Bone",[8],40.18%
same,"^238Pu excretion, Total Excretion, Avg",[9],72.33 percent recovered dose
same,"^238Pu excretion, Total Feces, Avg",[9],44.91 percent recovered dose
same,"^238Pu excretion, Total Urine, Avg",[9],27.43 percent recovered dose
same,"238Pu percent increase in excretion, Total Excretion",[9],156.10%
same,"238Pu percent increase in excretion, Total Feces",[9],200.32%
same,"238Pu percent increase in excretion, Total Urine",[9],114.39%
same,"^238Pu retention, GI Tract, Avg",[10],1.63 percent recovered dose
same,"^238Pu retention, Kidney, Avg",[10],0.25 percent recovered dose
same,"^238Pu retention, Liver, Avg",[10],12.44 percent recovered dose
same,"^238Pu retention, Soft Tissue, Avg",[10],2.22 percent recovered dose
same,"^238Pu retention, Total Body, Avg",[10],34.34 percent recovered dose
same,"^238Pu retention, Total Bone, Avg",[10],17.81 percent recovered dose
